According to US8735414B2 (priority 2009, dated 2014):

What follows are molecules tested on bicistronic HCV replicon (replicon RNA, GenBank Accession No. AJ242654) (assay: HCV Replicon Assay). Conditions: Hepatitis C virus, 72 h, read-out: Replicon IC50.
Assay type: cell-based

Compound	IC50 [nM]
Cc1cc2c(cc1F)c(C#N)c(-c1ccc(S(=O)(=O)N[C@@H](C)C(F)(F)F)cn1)n2-c1ncccn1 [compound 634, 6-[3-cyano-5-fluoro-6-methyl-1-(pyrimidin-2-yl)-1H-indol-2-yl]-N-[(2S)-1,1,1-trifluoropropan-2-yl]pyridine-3-sulfonamide]	< 500
C[C@H](NS(=O)(=O)c1ccc(-c2c(C#N)c3cc(Cl)c(OC(F)F)cc3n2C2CCC2)nc1)C(F)(F)F [compound 636, 6-[5-chloro-3-cyano-1-cyclobutyl-6-(difluoromethoxy)-1H-indol-2-yl]-N-[(2S)-1,1,1-trifluoropropan-2-yl]pyridine-3-sulfonamide]	< 500
Cc1cc2c(cc1F)c(C#N)c(-c1ccc(S(=O)(=O)NC3(C(F)(F)F)CC3)cn1)n2C1CCCC1 [compound 644, 6-(3-cyano-1-cyclopentyl-5-fluoro-6-methyl-1H-indol-2-yl)-N-[1-(trifluoromethyl)cyclopropyl]pyridine-3-sulfonamide]	< 500
C[C@H](NS(=O)(=O)c1ccc(-c2c(C#N)c3ccc(C4CC4)cc3n2-c2ncccn2)nc1)C(F)(F)F [compound 650, 6-[3-cyano-6-cyclopropyl-1-(pyrimidin-2-yl)-1H-indol-2-yl]-N-[(2S)-1,1,1-trifluoropropan-2-yl]pyridine-3-sulfonamide]	< 500
Cc1cc2c(cc1F)c(C#N)c(-c1ccc(S(=O)(=O)NC3CC3)cn1)n2C1CCC1 [compound 652, 6-(3-cyano-1-cyclobutyl-5-fluoro-6-methyl-1H-indol-2-yl)-N-cyclopropylpyridine-3-sulfonamide]	< 500
Cc1cc2c(C#N)c(-c3ccc(S(=O)(=O)N[C@H](C)C(F)(F)F)cn3)n(C3CCC3)c2cc1OC(F)F [compound 665, 6-[3-cyano-1-cyclobutyl-6-(difluoromethoxy)-5-methyl-1H-indol-2-yl]-N-[(2R)-1,1,1-trifluoropropan-2-yl]pyridine-3-sulfonamide]	500 to 2000
Cc1c(F)cc2c(C#N)c(-c3ncc(S(=O)(=O)NC(CF)CF)cn3)n(C3CCC3)c2c1F [compound 668, 2-(3-cyano-1-cyclobutyl-5,7-difluoro-6-methyl-1H-indol-2-yl)-N-(1,3-difluoropropan-2-yl)pyrimidine-5-sulfonamide]	< 500
C[C@@H](NS(=O)(=O)c1ccc(-c2c(C#N)c3cc(F)c(OC(F)F)cc3n2-c2ccccn2)nc1)C(F)(F)F [compound 670, 6-[3-cyano-6-(difluoromethoxy)-5-fluoro-1-(pyridin-2-yl)-1H-indol-2-yl]-N-[(2R)-1,1,1-trifluoropropan-2-yl]pyridine-3-sulfonamide]	< 500
Cc1ccc2c(C#N)c(-c3ccc(S(=O)(=O)N[C@H](C)C(F)(F)F)cn3)n(-c3ccccn3)c2c1 [compound 671, 6-[3-cyano-6-methyl-1-(pyridin-2-yl)-1H-indol-2-yl]-N-[(2R)-1,1,1-trifluoropropan-2-yl]pyridine-3-sulfonamide]	< 500
Cc1cc2c(cc1F)c(C#N)c(-c1ncc(S(=O)(=O)N[C@@H](C)C(F)(F)F)cn1)n2C1CCCCC1 [compound 679, 2-(3-cyano-1-cyclohexyl-5-fluoro-6-methyl-1H-indol-2-yl)-N-[(2S)-1,1,1-trifluoropropan-2-yl]pyrimidine-5-sulfonamide]	< 500
C[C@H](NS(=O)(=O)c1ccc(-c2c(C#N)c3cc(F)c(OC(F)F)cc3n2-c2ncccn2)nc1)C(F)(F)F [compound 682, 6-[3-cyano-6-(difluoromethoxy)-5-fluoro-1-(pyrimidin-2-yl)-1H-indol-2-yl]-N-[(2S)-1,1,1-trifluoropropan-2-yl]pyridine-3-sulfonamide]	< 500
Cc1cc2c(cc1F)c(C(N)=O)c(-c1ccc(S(=O)(=O)NC(C)(C)C)cn1)n2C1CCCC1 [compound 683, 2-[5-(tert-butylsulfamoyl)pyridin-2-yl]-1-cyclopentyl-5-fluoro-6-methyl-1H-indole-3-carboxamide]	< 500
CSc1cc2c(C#N)c(-c3ccc(S(=O)(=O)N[C@@H](C)C(F)(F)F)cn3)n(C3CCC3)c2cc1OC(F)F [compound 685, 6-[3-cyano-1-cyclobutyl-6-(difluoromethoxy)-5-(methylsulfanyl)-1H-indol-2-yl]-N-[(2S)-1,1,1-trifluoropropan-2-yl]pyridine-3-sulfonamide]	500 to 2000
Cc1cc2c(cc1O)c(C#N)c(-c1ccc(S(=O)(=O)N[C@H](C)C(F)(F)F)cn1)n2C1CCCC1 [compound 693, 6-(3-cyano-1-cyclopentyl-5-hydroxy-6-methyl-1H-indol-2-yl)-N-[(2R)-1,1,1-trifluoropropan-2-yl]pyridine-3-sulfonamide]	< 500
Cc1cc2c(cc1F)c(C#N)c(-c1ccc(S(=O)(=O)N[C@H](C)C(F)(F)F)cn1)n2-c1ncccn1 [compound 695, 6-[3-cyano-5-fluoro-6-methyl-1-(pyrimidin-2-yl)-1H-indol-2-yl]-N-[(2R)-1,1,1-trifluoropropan-2-yl]pyridine-3-sulfonamide]	< 500
CC1(NS(=O)(=O)c2ccc(-c3c(C#N)c4cc(CC(F)F)ccc4n3C3CCC3)nc2)CC1 [compound 696, 6-[3-cyano-1-cyclobutyl-5-(2,2-difluoroethyl)-1H-indol-2-yl]-N-(1-methylcyclopropyl)pyridine-3-sulfonamide]	< 500
C[C@H](NS(=O)(=O)c1ccc(-c2c(C#N)c3cc(F)c(CC(F)F)cc3n2C2CCC2)nc1)C(F)(F)F [compound 697, 6-[3-cyano-1-cyclobutyl-6-(2,2-difluoroethyl)-5-fluoro-1H-indol-2-yl]-N-[(2S)-1,1,1-trifluoropropan-2-yl]pyridine-3-sulfonamide]	< 500
CCc1cc2c(cc1F)c(C#N)c(-c1ccc(S(=O)(=O)N[C@@H](C)C(F)(F)F)cn1)n2-c1ncccn1 [compound 704, 6-[3-cyano-6-ethyl-5-fluoro-1-(pyrimidin-2-yl)-1H-indol-2-yl]-N-[(2S)-1,1,1-trifluoropropan-2-yl]pyridine-3-sulfonamide]	< 500
Cc1cc2c(cc1F)c(C(N)=O)c(-c1ncc(S(=O)(=O)N[C@@H](C)C(F)(F)F)cn1)n2C1CCCCC1 [compound 707, 1-cyclohexyl-5-fluoro-6-methyl-2-(5-{[(2S)-1,1,1-trifluoropropan-2-yl]sulfamoyl}pyrimidin-2-yl)-1H-indole-3-carboxamide]	< 500
C[C@H](N(C(F)F)S(=O)(=O)c1ccc(-c2c(C#N)c3cc(F)c(OC(F)F)cc3n2C2CCC2)nc1)C(F)(F)F [compound 712, 6-[3-cyano-1-cyclobutyl-6-(difluoromethoxy)-5-fluoro-1H-indol-2-yl]-N-(difluoromethyl)-N-[(2S)-1,1,1-trifluoropropan-2-yl]pyridine-3-sulfonamide]	2000 to 5000
CC(C)(C)NS(=O)(=O)c1ccc(-c2c(C#N)c3cc(F)c(OC(F)F)cc3n2C2CCC2)nc1 [compound 720, N-tert-butyl-6-[3-cyano-1-cyclobutyl-6-(difluoromethoxy)-5-fluoro-1H-indol-2-yl]pyridine-3-sulfonamide]	< 500
CC(C)(C)N(C(F)F)S(=O)(=O)c1ccc(-c2c(C#N)c3cc(F)c(OC(F)F)cc3n2C2CCC2)nc1 [compound 721, N-tert-butyl-6-[3-cyano-1-cyclobutyl-6-(difluoromethoxy)-5-fluoro-1H-indol-2-yl]-N-(difluoromethyl)pyridine-3-sulfonamide]	500 to 2000
COc1cc2c(cc1F)c(C#N)c(-c1ccc(S(=O)(=O)N[C@@H](C)C(F)(F)F)cn1)n2C1CCC1 [compound 725, 6-(3-cyano-1-cyclobutyl-5-fluoro-6-methoxy-1H-indol-2-yl)-N-[(2S)-1,1,1-trifluoropropan-2-yl]pyridine-3-sulfonamide]	< 500
C[C@H](NS(=O)(=O)c1ccc(-c2cc3cc(F)c(OC(F)F)cc3n2C2CCC2)nc1)C(F)(F)F [compound 727, 6-[1-cyclobutyl-6-(difluoromethoxy)-5-fluoro-1H-indol-2-yl]-N-[(2S)-1,1,1-trifluoropropan-2-yl]pyridine-3-sulfonamide]	< 500
Cc1cc2c(cc1F)c(C#N)c(-c1ccc(S(=O)(=O)N[C@@H](C)C(F)(F)F)cn1)n2-c1ccc(F)cn1 [compound 742, 6-[3-cyano-5-fluoro-1-(5-fluoropyridin-2-yl)-6-methyl-1H-indol-2-yl]-N-[(2S)-1,1,1-trifluoropropan-2-yl]pyridine-3-sulfonamide]	< 500
C[C@H](NS(=O)(=O)c1ccc(-c2c(C(N)=O)c3cc(F)ccc3n2-c2ccccn2)nc1)C(F)(F)F [compound 748, 5-fluoro-1-(pyridin-2-yl)-2-(5-{[(2S)-1,1,1-trifluoropropan-2-yl]sulfamoyl}pyridin-2-yl)-1H-indole-3-carboxamide]	< 500
Cc1cc2c(cc1F)c(C#N)c(-c1ccc(S(=O)(=O)N[C@H](C)C(F)(F)F)cn1)n2C1CCOCC1 [compound 749, 6-[3-cyano-5-fluoro-6-methyl-1-(tetrahydro-2H-pyran-4-yl)-1H-indol-2-yl]-N-[(2R)-1,1,1-trifluoropropan-2-yl]pyridine-3-sulfonamide]	< 500
Cc1cc2c(cc1F)c(C#N)c(-c1ccc(S(=O)(=O)NC(C)(C)C(F)(F)F)cn1)n2C1CCOCC1 [compound 750, 6-[3-cyano-5-fluoro-6-methyl-1-(tetrahydro-2H-pyran-4-yl)-1H-indol-2-yl]-N-(1,1,1-trifluoro-2-methylpropan-2-yl)pyridine-3-sulfonamide]	< 500
Cc1cc2c(cc1F)c(C#N)c(-c1ccc(S(=O)(=O)N[C@@H](C)C(F)(F)F)cn1)n2C1CCOCC1 [compound 751, 6-[3-cyano-5-fluoro-6-methyl-1-(tetrahydro-2H-pyran-4-yl)-1H-indol-2-yl]-N-[(2S)-1,1,1-trifluoropropan-2-yl]pyridine-3-sulfonamide]	< 500
Cc1cc2c(cc1F)c(C#N)c(-c1ccc(S(=O)(=O)NC(C)(C)C)cn1)n2C1CCOCC1 [compound 752, N-tert-butyl-6-[3-cyano-5-fluoro-6-methyl-1-(tetrahydro-2H-pyran-4-yl)-1H-indol-2-yl]pyridine-3-sulfonamide]	< 500
